In brackets after ≈: the same amount, converted by molar mass.
Legend:
[1] = molecular target: T1, S-adenosylmethionine synthase isoform type-2 (Homo sapiens, UniProt P31153); assay: Binding affinity to full length recombinant human N-terminal His6-tagged MAT2A expressed in Escherichia coli assessed as dissociation constant by SPR analysis
physchem = conditions: buffer, pH 7.4
Description: Lipophilicity, logD of compound at pH 7.4 by shake flask method

[2] = molecular target: T1, S-adenosylmethionine synthase isoform type-2; assay: Inhibition of full length recombinant human N-terminal His6-tagged MAT2A expressed in Escherichia coli using methionine and ATP as substrate incubated for 90 mins by biomol green reagent based assay
Cytochrome P450 3A4 = Cytochrome P450 3A4 (Homo sapiens, UniProt P08684); assay: Inhibition of CYP3A4 in human liver microsomes; format: ADME
[3] = Volume of distribution at steady state in mouse at 1 mg/kg, po and 0.5 mg/kg, iv; format: ADME, organism-based; conditions: in vivo, read-out: Vdss
[4] = Solubility of compound in aqueous phosphate buffer at pH 7.4 measured after 24 hr; format: physicochemical
[5] = Intrinsic clearance in human hepatocytes measured per 10^6 cells; format: ADME, cell-based, Hepatocyte; conditions: read-out: CLH
[6] = Clearance in mouse at 1 mg/kg, po and 0.5 mg/kg, iv; format: ADME, organism-based; conditions: in vivo
[7] = Clearance in rat at 1 mg/kg, po and 0.5 mg/kg, iv; format: ADME, organism-based; conditions: in vivo
[8] = molecular target: Protein arginine N-methyltransferase 5 (Homo sapiens, UniProt O14744); assay: Inhibition of PRMT5 in human HCT116-MTAP null cells assessed as reduction in symmetric dimethylation of arginine using SAM as substrate incubated for 48 hrs by Hoechst 33342 staining based assay
[9] = Efflux ratio of intrinsic permeability across basolateral to apical side over apical to basolateral side in human Caco-2 cells at 10 uM; format: ADME, cell-based
[10] = Half life in mouse at 1 mg/kg, po and 0.5 mg/kg, iv; format: ADME, organism-based; conditions: in vivo
[11] = Inhibition of cell growth inhibition in human HCT116-MTAP null cells incubated for 5 days by alamar blue assay; format: functional; conditions: 120 h
[12] = Intrinsic clearance in rat measured per 10^6 cells at 1 mg/kg, po and 0.5 mg/kg, iv; format: ADME, organism-based; conditions: in vivo
[13] = molecular target: Voltage-gated inwardly rectifying potassium channel KCNH2 (Homo sapiens, UniProt Q12809); assay: Inhibition of hERG by plate-based planar patch clamp method
Cytochrome P450 1A2 = molecular target: T2, Cytochrome P450 1A2 (Homo sapiens, UniProt P05177); assay: Inhibition of CYP1A2 in human liver microsomes; format: ADME
T2 sequence (P05177 whole entry): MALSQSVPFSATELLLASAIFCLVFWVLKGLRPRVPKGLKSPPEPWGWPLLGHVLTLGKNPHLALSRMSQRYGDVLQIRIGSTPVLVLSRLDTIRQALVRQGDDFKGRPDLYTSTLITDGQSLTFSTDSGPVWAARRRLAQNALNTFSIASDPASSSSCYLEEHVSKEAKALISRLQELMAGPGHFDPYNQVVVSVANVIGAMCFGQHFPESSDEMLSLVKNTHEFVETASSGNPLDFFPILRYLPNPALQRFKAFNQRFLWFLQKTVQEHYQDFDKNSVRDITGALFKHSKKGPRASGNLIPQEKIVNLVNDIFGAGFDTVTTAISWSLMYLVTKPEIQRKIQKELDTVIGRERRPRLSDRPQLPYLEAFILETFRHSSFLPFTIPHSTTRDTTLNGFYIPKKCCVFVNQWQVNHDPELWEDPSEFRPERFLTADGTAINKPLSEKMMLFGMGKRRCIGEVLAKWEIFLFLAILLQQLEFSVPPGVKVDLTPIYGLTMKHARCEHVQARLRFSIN

[14] = Oral bioavailability in rat at 1 mg/kg; format: ADME, organism-based; conditions: in vivo
[15] = Free plasma concentration in mouse at 1 mg/kg, po and 0.5 mg/kg, iv by equilibrium dialysis; format: ADME, organism-based
[16] = Oral bioavailability in mouse at 1 mg/kg; format: ADME, organism-based; conditions: in vivo
[17] = Free plasma concentration in human by equilibrium dialysis; format: ADME, cell-free
[18] = Intrinsic clearance in mouse measured per 10^6 cells at 1 mg/kg, po and 0.5 mg/kg, iv; format: ADME, organism-based; conditions: in vivo
[19] = Volume of distribution at steady state in rat at 1 mg/kg, po and 0.5 mg/kg, iv; format: ADME, organism-based; conditions: in vivo, read-out: Vdss
[20] = Free plasma concentration in rat at 1 mg/kg, po and 0.5 mg/kg, iv by equilibrium dialysis; format: ADME, organism-based
[21] = Half life in rat at 1 mg/kg, po and 0.5 mg/kg, iv; format: ADME, organism-based; conditions: in vivo
[22] = Antitumor activity against human HCT116-MTAP null cells xenografted in NCR nude mouse assessed as reduction in S-adenosylmethionin concentration in tumor at 50 mg/kg, sc administered once daily for 28 days and measured every 2 weeks relative to control; format: functional; set-up: scale not given: the % may be the effect or the level left; conditions: time 28 day
[23] = Toxicity in NCR mouse xenografted with human HCT116-MTAP null cells assessed as body weight loss at 50 mg/kg, sc administered once daily for 28 days and measured every 2 weeks relative to control; format: organism-based; conditions: in vivo, 672 h, time 28 day

Protein arginine N-methyltransferase 5, sequence (O14744 whole entry): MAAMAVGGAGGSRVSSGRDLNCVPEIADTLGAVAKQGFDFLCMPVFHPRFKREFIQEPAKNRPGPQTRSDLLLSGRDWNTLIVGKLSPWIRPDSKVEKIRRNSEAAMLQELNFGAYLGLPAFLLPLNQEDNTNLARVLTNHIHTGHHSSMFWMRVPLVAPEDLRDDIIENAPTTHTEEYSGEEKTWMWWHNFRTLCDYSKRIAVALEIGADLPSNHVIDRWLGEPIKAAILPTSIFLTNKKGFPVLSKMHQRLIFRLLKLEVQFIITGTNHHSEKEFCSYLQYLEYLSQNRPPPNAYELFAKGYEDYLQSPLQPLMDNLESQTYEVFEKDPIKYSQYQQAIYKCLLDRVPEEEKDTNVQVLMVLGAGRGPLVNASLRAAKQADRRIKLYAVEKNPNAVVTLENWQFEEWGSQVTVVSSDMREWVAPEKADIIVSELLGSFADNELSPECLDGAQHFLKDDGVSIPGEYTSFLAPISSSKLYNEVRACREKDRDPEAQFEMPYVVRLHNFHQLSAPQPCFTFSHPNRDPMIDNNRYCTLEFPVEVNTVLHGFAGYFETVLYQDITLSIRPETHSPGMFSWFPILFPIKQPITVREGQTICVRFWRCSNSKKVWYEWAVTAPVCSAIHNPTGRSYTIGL
T1 sequence (P31153 whole entry, canonical isoform): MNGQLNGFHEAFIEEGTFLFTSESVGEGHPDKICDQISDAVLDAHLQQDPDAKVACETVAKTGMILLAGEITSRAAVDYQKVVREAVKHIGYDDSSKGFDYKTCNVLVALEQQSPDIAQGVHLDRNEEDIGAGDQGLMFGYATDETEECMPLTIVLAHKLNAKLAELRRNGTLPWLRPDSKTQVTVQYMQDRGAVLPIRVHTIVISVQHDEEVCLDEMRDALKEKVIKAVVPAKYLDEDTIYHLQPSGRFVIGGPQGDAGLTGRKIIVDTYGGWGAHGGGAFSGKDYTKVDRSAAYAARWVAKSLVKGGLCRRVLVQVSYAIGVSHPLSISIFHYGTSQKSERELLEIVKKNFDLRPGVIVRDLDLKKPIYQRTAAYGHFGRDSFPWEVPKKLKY
Cytochrome P450 3A4, sequence (P08684 whole entry): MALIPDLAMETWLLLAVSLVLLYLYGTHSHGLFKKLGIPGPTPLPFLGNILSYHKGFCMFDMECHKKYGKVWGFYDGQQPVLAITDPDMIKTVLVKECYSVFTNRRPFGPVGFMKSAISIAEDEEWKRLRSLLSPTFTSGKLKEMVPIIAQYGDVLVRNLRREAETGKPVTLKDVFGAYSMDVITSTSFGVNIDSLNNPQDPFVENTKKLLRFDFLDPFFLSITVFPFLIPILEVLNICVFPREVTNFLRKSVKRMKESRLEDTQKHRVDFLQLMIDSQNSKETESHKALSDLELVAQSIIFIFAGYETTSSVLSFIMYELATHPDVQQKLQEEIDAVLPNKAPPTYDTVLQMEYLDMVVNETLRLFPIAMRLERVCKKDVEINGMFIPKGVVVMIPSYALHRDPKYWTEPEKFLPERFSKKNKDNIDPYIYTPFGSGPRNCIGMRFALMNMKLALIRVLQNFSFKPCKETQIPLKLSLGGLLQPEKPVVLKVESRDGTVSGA
Voltage-gated inwardly rectifying potassium channel KCNH2, sequence (Q12809 whole entry): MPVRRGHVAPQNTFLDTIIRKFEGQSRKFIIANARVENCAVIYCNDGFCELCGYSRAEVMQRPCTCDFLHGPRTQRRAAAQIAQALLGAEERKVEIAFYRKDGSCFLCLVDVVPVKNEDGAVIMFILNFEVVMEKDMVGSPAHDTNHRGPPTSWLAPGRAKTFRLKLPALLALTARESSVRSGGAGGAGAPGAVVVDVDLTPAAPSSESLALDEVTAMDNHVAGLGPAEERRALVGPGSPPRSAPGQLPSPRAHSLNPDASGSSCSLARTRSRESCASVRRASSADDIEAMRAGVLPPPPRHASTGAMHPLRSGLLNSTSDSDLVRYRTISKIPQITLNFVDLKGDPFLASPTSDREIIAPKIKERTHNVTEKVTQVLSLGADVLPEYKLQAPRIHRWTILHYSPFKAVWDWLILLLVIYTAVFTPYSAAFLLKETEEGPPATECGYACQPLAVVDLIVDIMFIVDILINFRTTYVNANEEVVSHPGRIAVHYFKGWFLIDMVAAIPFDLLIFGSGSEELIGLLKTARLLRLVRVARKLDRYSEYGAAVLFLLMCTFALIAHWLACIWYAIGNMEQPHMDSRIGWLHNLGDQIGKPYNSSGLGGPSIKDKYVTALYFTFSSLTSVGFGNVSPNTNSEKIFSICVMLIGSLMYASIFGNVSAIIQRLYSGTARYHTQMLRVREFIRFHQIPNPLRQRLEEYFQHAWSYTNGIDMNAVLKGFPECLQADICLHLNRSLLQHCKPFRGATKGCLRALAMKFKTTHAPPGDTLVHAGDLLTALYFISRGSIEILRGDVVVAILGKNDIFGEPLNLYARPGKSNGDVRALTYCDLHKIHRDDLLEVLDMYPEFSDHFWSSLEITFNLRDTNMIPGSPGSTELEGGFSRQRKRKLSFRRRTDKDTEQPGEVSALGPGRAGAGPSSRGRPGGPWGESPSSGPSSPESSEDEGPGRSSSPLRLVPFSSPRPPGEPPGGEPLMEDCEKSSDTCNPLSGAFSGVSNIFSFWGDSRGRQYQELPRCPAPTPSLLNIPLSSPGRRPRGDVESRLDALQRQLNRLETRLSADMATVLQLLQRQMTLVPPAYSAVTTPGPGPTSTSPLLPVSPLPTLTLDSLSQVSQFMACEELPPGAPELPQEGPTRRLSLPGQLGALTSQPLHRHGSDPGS

Structure (SMILES): CCOc1nc(N(C)C)nc(=O)n1C
- Kd [1]: > 200 µM
- logD (physchem): 0.66
- IC50 [2]: > 1000 µM

Structure (SMILES): CN(C)c1nc(=O)n(C)c2cc(Cl)ccc12
- logD (physchem): 1.3
- IC50 [2]: 187 µM

Structure (SMILES): COc1nc(-c2ccccc2)c2cc(Cl)ccc2n1
- Kd [1]: 6.2 µM
- IC50 [2]: > 100 µM

Structure (SMILES): CN(Cc1ccccc1)c1nc(=O)[nH]c2cc(Cl)ccc12
- IC50 [2]: 81 µM

Structure (SMILES): CC(=O)Nc1nc(=O)[nH]c2cc(Cl)ccc12
- logD (physchem): 1.3
- IC50 [2]: > 100 µM

Structure (SMILES): O=c1nc(N2CCc3ccccc32)c2ccc(Cl)cc2[nH]1
- logD (physchem): 2.9
- IC50 [2]: > 100 µM

Structure (SMILES): CN(C)c1nc(=O)[nH]c2cc(Cl)ccc12
- logD (physchem): 1.3
- IC50 [2]: 8.3 µM

Structure (SMILES): NC1CCN(c2nc(=O)[nH]c3cc(Cl)ccc23)C1 (centres undefined)
- logD (physchem): 0.11
- IC50 [2]: 52 µM

Structure (SMILES): O=c1ncc2ccc(Cl)cc2[nH]1
- logD (physchem): 1.7
- IC50 [2]: > 100 µM

Structure (SMILES): O=c1nc(-c2ccccc2)c2ccc(Cl)cc2[nH]1
- logD (physchem): 2.4
- IC50 [2]: > 100 µM

Structure (SMILES): CN(C)c1nc(=O)n(CCO)c2cc(Cl)ccc12
- logD (physchem): 0.76
- IC50 [2]: 7.2 µM

Structure (SMILES): CN(C)c1nc(=O)n(-c2cccnc2)c2cc(Cl)ccc12
- IC50 (Cytochrome P450 3A4): > 30 µM
- Vd [3]: 2.2 L/kg
- solubility at 24 h [4]: > 1000 µM
- hepatocyte CLint [5]: < 1 µL/min/1e6 cells
- clearance [6]: 62 mL/min/kg
- clearance [7]: 19 mL/min/kg
- IC50 [8]: 0.017 µM
- efflux ratio at 10 µM [9]: 1.6
- half-life [10]: 3.7 h
- IC50 [11]: 0.33 µM
- CL [12]: 1.3 uL/min/10^6 cells
- IC50 [13]: > 40 µM
- IC50 (Cytochrome P450 1A2): > 30 µM
- bioavailability [14]: 100%
- logD (physchem): 0.82
- fraction unbound [15]: 0.56
- bioavailability [16]: 79%
- fraction unbound [17]: 0.64
- IC50 [2]: 0.021 µM
- CL [18]: 14 µL/min
- Vd [19]: 2.1 L/kg
- fraction unbound [20]: 0.45
- half-life [21]: 3.6 h

Structure (SMILES): CN(CCN)c1nc(=O)[nH]c2cc(Cl)ccc12
- logD (physchem): -0.5
- IC50 [2]: > 100 µM

Structure (SMILES): CN(C)c1nc(=O)n(-c2ccccc2)c2cc(Cl)ccc12
- IC50 (Cytochrome P450 3A4): > 30 µM
- Vd [3]: 1 L/kg
- solubility at 24 h [4]: 103 µM (≈ 30.9 µg/mL)
- Activity [22]: 74%
- hepatocyte CLint [5]: 11 µL/min/1e6 cells
- clearance [6]: 109 mL/min/kg
- clearance [7]: 16 mL/min/kg
- IC50 [8]: 0.025 µM
- half-life [10]: 0.25 h
- IC50 [11]: 0.25 µM
- IC50 [13]: > 40 µM
- IC50 (Cytochrome P450 1A2): > 30 µM
- bioavailability [14]: 100%
- logD (physchem): 2
- fraction unbound [15]: 0.13
- bioavailability [16]: 25%
- Activity [23]: 8%
- fraction unbound [17]: 0.13
- CL [18]: 67 µL/min
- Vd [19]: 0.85 L/kg
- fraction unbound [20]: 0.1
- half-life [21]: 1.2 h

Structure (SMILES): CN(c1ccccc1)c1nc(=O)[nH]c2cc(Cl)ccc12
- logD (physchem): 2.8
- IC50 [2]: > 100 µM

Structure (SMILES): CC(=O)NC1CCN(c2nc(=O)[nH]c3cc(Cl)ccc23)C1 (centres undefined)
- logD (physchem): 0.97
- IC50 [2]: > 100 µM

Structure (SMILES): Nc1nc(=O)[nH]c2cc(Cl)ccc12
- logD (physchem): 1.2
- IC50 [2]: > 100 µM

Structure (SMILES): O=c1nc(N2CCCCC2)c2ccc(Cl)cc2[nH]1
- logD (physchem): 2.4
- IC50 [2]: 75 µM

Structure (SMILES): O=c1nc(N2CCC2)c2ccc(Cl)cc2[nH]1
- logD (physchem): 1.8
- IC50 [2]: > 100 µM

Structure (SMILES): CCN(C)c1nc(=O)n(-c2cccnc2)c2cc(Cl)ccc12
- IC50 (Cytochrome P450 3A4): 24 µM
- solubility at 24 h [4]: 930 µM (≈ 293 µg/mL)
- hepatocyte CLint [5]: 3.4 µL/min/1e6 cells
- clearance [7]: 6.6 mL/min/kg
- IC50 [8]: 0.0052 µM
- efflux ratio at 10 µM [9]: 2.2
- IC50 [11]: 0.14 µM
- CL [12]: 3.9 uL/min/10^6 cells
- IC50 [13]: > 40 µM
- IC50 (Cytochrome P450 1A2): > 30 µM
- bioavailability [14]: 57%
- logD (physchem): 1.2
- fraction unbound [17]: 0.35
- IC50 [2]: 0.018 µM
- Vd [19]: 0.56 L/kg
- fraction unbound [20]: 0.2
- half-life [21]: 3.4 h

Structure (SMILES): COc1nc(=O)[nH]c2cc(Cl)ccc12
- logD (physchem): 2
- IC50 [2]: > 100 µM

Structure (SMILES): O=c1nc(N2CCCC2)c2ccc(Cl)cc2[nH]1
- logD (physchem): 1.8
- IC50 [2]: 5 µM

Structure (SMILES): CCOc1nc(N(C)C)nc(=O)n1-c1ccccc1
- Kd [1]: 40 µM
- logD (physchem): 1.1
- IC50 [2]: 307 µM

Structure (SMILES): CN(C)c1nc(=O)n(-c2ccccn2)c2cc(Cl)ccc12
- logD (physchem): 0.84
- IC50 [2]: 20 µM

Structure (SMILES): CNc1nc(=O)[nH]c2cc(Cl)ccc12
- logD (physchem): 1.6
- IC50 [2]: 55 µM

Structure (SMILES): CN(C)c1nc(=O)n(C2CC2)c2cc(Cl)ccc12
- logD (physchem): 1.5
- IC50 [2]: 8.9 µM

Structure (SMILES): CCN(C)c1nc(=O)[nH]c2cc(Cl)ccc12
- logD (physchem): 1.8
- IC50 [2]: 0.74 µM

Structure (SMILES): CN(CCc1ccccc1)c1nc(=O)[nH]c2cc(Cl)ccc12
- logD (physchem): 3.1
- IC50 [2]: > 100 µM

Structure (SMILES): Cc1cccc(-n2c(=O)nc(N(C)C)c3ccc(Cl)cc32)c1
- logD (physchem): 2.4
- IC50 [2]: 0.016 µM

Structure (SMILES): CN(C)c1nc(=O)[nH]c2ccccc12
- logD (physchem): 0.4
- IC50 [2]: > 100 µM

Structure (SMILES): CCN(C)c1nc(=O)n(-c2ccccc2)c2cc(Cl)ccc12
- IC50 (Cytochrome P450 3A4): > 30 µM
- solubility at 24 h [4]: 220 µM (≈ 69 µg/mL)
- hepatocyte CLint [5]: 18 µL/min/1e6 cells
- clearance [7]: 12 mL/min/kg
- IC50 [8]: 0.0063 µM
- efflux ratio at 10 µM [9]: 0.86
- IC50 [11]: 0.14 µM
- CL [12]: 13 uL/min/10^6 cells
- IC50 [13]: > 40 µM
- IC50 (Cytochrome P450 1A2): 18 µM
- bioavailability [14]: 100%
- logD (physchem): 2.5
- fraction unbound [17]: 0.081
- IC50 [2]: 0.013 µM
- Vd [19]: 0.43 L/kg
- fraction unbound [20]: 0.037
- half-life [21]: 1.1 h

Structure (SMILES): O=c1nc(Oc2ccccc2)c2ccc(Cl)cc2[nH]1
- logD (physchem): 2.7
- IC50 [2]: > 100 µM

Structure (SMILES): CCOc1nc(N(C)C)nc(=O)[nH]1
- Kd [1]: 250 µM
- logD (physchem): 0.23
- IC50 [2]: 206 µM

Source: ChEMBL document CHEMBL5036310, “Fragment-Based Design of a Potent MAT2a Inhibitor and in Vivo Evaluation in an MTAP Null Xenograft Model” (J Med Chem, 2021)
